In the assay the test system is HEK293 NOD2/MDP-stimulated NF-kB reporter inhibition. In words: PubChem AID 2334.

The term IC50 denotes the concentration needed to halve the response being measured. As for `O=C(Nc1nc2c(F)cc(F)cc2s1)c1ccc([N+](=O)[O-])o1`, the 50% inhibitory concentration (IC50) is 15.6 µM.

(Values after PubChem BioAssay AID2334 (Sanford-Burnham Center for Chemical Genomics, 2010).)
